# Results taken from ChEMBL document CHEMBL5120822, “Inhibition of the P2X7/NLRP3 Inflammasome Signaling Pathway by Deacetylgedunin from Toona sinensis” (J Nat Prod, 2022).
# Active and inactive are the calls of the source. No cut-off for these calls is given here.
# Experiments:
# THP-1 [1] = assay: Antiinflammatory activity against PMA-differentiated and LPS/ATP stimulated human THP-1 cells assessed as increase in cell viability at 5 to 20 uM incubated for 1 hrs followed by LPS stimulation for 12 hrs and ATP addition for 0.5 hrs by CCK8 assay; type: functional, cell-based; conditions: dose 5-20 µM, time 13.5 hrs
# [2] = target: NACHT, LRR and PYD domains-containing protein 3 (Homo sapiens) (UniProt Q96P20); assay: Inhibition of NLRP3 inflammasome activation in PMA-differentiated and LPS/NIG-stimulated human THP-1 cells assessed as decrease in IL-1beta expression at 20 uM incubated for 1 hrs followed by LPS stimulation for 12 hrs and NIG addition for 2 hrs by western blot analysis; type: cell-based; conditions: time 15.0 hrs
# Chain of NACHT, LRR and PYD domains-containing protein 3 (Homo sapiens) (Q96P20 whole entry, the tested form may be a part): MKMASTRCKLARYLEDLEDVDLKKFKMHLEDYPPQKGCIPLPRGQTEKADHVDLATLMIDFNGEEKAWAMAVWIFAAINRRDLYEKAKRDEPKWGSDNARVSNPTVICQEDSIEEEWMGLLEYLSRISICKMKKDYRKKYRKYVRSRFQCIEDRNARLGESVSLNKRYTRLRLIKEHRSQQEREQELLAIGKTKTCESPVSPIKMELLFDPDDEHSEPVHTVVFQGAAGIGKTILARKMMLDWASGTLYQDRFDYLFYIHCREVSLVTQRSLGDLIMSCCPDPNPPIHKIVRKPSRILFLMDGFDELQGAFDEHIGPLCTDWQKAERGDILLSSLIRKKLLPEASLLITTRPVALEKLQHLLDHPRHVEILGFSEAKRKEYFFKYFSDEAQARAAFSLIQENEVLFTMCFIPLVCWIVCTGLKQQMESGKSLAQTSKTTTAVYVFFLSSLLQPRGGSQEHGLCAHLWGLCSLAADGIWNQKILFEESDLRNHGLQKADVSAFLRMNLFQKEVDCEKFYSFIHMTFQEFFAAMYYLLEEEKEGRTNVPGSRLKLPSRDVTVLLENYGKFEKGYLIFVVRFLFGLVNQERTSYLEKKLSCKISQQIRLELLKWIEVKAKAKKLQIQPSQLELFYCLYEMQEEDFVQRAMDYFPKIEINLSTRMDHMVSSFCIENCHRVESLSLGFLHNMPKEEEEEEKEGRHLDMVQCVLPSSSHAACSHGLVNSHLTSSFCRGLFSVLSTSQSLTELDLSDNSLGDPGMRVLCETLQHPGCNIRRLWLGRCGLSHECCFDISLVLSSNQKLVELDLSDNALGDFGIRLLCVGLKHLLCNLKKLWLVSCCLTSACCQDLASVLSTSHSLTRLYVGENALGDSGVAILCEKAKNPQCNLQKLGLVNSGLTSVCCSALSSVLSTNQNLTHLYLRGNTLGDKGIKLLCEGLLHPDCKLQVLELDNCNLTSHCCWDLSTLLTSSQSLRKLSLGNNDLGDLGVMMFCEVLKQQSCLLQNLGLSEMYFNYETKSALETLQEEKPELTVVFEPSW
# [3] = target: NACHT, LRR and PYD domains-containing protein 3 (Homo sapiens) (UniProt Q96P20); assay: Inhibition of NLRP3 inflammasome activation in PMA-differentiated and LPS/ATP-stimulated human THP-1 cells assessed as downregulation of NF-KappaB p65 subunit phosphorylation at 5 to 20 uM incubated for 1 hrs followed by LPS stimulation for 12 hrs and ATP addition for 0.5 hrs by Western blot analysis; type: cell-based; conditions: dose 5-20 µM, time 13.5 hrs
# J774.A1 [4] = assay: Antiinflammatory activity against LPS/ATP-induced […] cells assessed as inhibition of ROS release at 20 uM incubated for 1 hrs followed by LPS stimulation for 12 hrs and ATP addition for 0.5 hrs by DCFH-DA staining based flow cytometry analysis; type: functional, cell-based; conditions: Mus musculus, time 13.5 hrs
# RAW264.7 = assay: Cytotoxicity against mouse RAW264.7 cells derived macrophage assessed as reduction in cell viability upto 40 uM incubated for 24 hrs by CCK-8 assay; type: toxicity, cell-based; conditions: raw264.7, 24 h
# [5] = target: NACHT, LRR and PYD domains-containing protein 3 (Homo sapiens) (UniProt Q96P20); assay: Inhibition of NLRP3 inflammasome activation in PMA-differentiated and LPS/NIG-stimulated human THP-1 cells assessed as decrease in caspase-1 expression at 20 uM incubated for 1 hrs followed by LPS stimulation for 12 hrs and NIG addition for 2 hrs by western blot analysis; type: cell-based; conditions: time 15.0 hrs
# [6] = target: NACHT, LRR and PYD domains-containing protein 3 (Homo sapiens) (UniProt Q96P20); assay: Inhibition of NLRP3 inflammasome activation in PMA-differentiated and LPS/MSU-stimulated human THP-1 cells assessed as decrease in pro-caspase-1 expression at 20 uM incubated for 1 hrs followed by LPS stimulation for 12 hrs and MSU addition for 6 hrs by western blot analysis; type: cell-based; conditions: time 19.0 hrs
# J774.A1 [7] = assay: Antiinflammatory activity against LPS/ATP-stimulated […] cells assessed as inhibition of ROS release at 20 uM incubated for 1 hrs followed by LPS stimulation for 12 hrs and ATP addition for 0.5 hrs by DCFH-DA staining based confocal microscopy; type: functional, cell-based; conditions: Mus musculus, time 13.5 hrs
# [8] = target: NACHT, LRR and PYD domains-containing protein 3 (Homo sapiens) (UniProt Q96P20); assay: Inhibition of NLRP3 inflammasome activation in PMA-differentiated and LPS/ATP-stimulated human THP-1 cells assessed as suppression of P2X7 expression at 5 to 20 uM incubated for 1 hrs followed by LPS stimulation for 12 hrs and ATP addition for 0.5 hrs by Western blot analysis; type: cell-based; conditions: dose 5-20 µM, time 13.5 hrs, DDE = dose-dependent effect
# [9] = target: NACHT, LRR and PYD domains-containing protein 3 (Homo sapiens) (UniProt Q96P20); assay: Inhibition of NLRP3 inflammasome activation in PMA-differentiated and LPS/ATP-stimulated human THP-1 cells assessed as inhibition of IL-6 secretion at 20 uM incubated for 1 hrs followed by LPS stimulation for 12 hrs and ATP addition for 0.5 hrs by ELISA; type: cell-based; conditions: time 13.5 hrs
# THP-1 [10] = assay: Antiinflammatory activity against PMA-differentiated and LPS/NIG stimulated human THP-1 cells assessed as increase in cell viability at 5 to 20 uM incubated for 1 hrs followed by LPS stimulation for 12 hrs and NIG addition for 2 hrs by LDH assay; type: functional, cell-based; conditions: dose 5-20 µM, time 15.0 hrs
# [11] = target: NACHT, LRR and PYD domains-containing protein 3 (Homo sapiens) (UniProt Q96P20); assay: Inhibition of NLRP3 inflammasome activation in PMA-differentiated and LPS/NIG-stimulated human THP-1 cells assessed as decrease of ASC polymers at 20 uM incubated for 1 hrs followed by LPS stimulation for 12 hrs and NIG addition for 2 hrs by Western blot analysis; type: cell-based; conditions: time 15.0 hrs
# THP-1 [12] = assay: Antiinflammatory activity against PMA-differentiated and LPS/ATP stimulated human THP-1 cells assessed as increase in cell viability at 5 to 20 uM incubated for 1 hrs followed by LPS stimulation for 12 hrs and ATP addition for 0.5 hrs by LDH assay; type: functional, cell-based; conditions: dose 5-20 µM, time 13.5 hrs
# [13] = target: NACHT, LRR and PYD domains-containing protein 3 (Homo sapiens) (UniProt Q96P20); assay: Inhibition of NLRP3 inflammasome activation in PMA-differentiated and LPS/NIG-stimulated human THP-1 cells assessed as decrease of ASC oligomerization at 20 uM incubated for 1 hrs followed by LPS stimulation for 12 hrs and NIG addition for 2 hrs by DAPI staining based immunofluorescence analysis; type: cell-based; conditions: time 15.0 hrs
# J774.1 = assay: Cytotoxicity against mouse J774.1 cells derived macrophage assessed as reduction in cell viability upto 40 uM incubated for 24 hrs by CCK-8 assay; type: toxicity, cell-based; conditions: j774.1, 24 h
# [14] = target: T1, P2X purinoceptor 7 (Homo sapiens) (UniProt Q99572); assay: Inhibition of pronase mediated degradation of P2X7 in human THP-1 cells assessed as increase in P2X7 expression at 20 to 80 uM by Western blot analysis; type: cell-based; conditions: dose 20-80 µM
# T1 sequence (whole entry): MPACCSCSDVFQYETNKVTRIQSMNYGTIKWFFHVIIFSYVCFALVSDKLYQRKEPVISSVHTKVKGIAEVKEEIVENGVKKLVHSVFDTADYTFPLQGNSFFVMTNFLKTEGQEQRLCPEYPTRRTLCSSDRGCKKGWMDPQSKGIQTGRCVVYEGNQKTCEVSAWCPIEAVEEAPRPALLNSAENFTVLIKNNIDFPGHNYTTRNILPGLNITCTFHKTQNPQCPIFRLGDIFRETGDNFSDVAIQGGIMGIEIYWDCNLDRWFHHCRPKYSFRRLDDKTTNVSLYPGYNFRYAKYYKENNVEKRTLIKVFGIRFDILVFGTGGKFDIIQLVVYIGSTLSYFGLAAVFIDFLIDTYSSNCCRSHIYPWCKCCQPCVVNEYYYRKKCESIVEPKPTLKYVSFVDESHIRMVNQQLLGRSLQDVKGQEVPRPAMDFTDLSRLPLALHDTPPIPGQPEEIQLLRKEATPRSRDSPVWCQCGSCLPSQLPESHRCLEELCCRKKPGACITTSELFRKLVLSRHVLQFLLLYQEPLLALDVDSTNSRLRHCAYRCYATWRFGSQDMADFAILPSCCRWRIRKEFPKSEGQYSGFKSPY
# [15] = target: NACHT, LRR and PYD domains-containing protein 3 (Homo sapiens) (UniProt Q96P20); assay: Inhibition of NLRP3 inflammasome activation in PMA-differentiated and LPS/ATP-stimulated human THP-1 cells assessed as decrease in caspase-1 expression at 5 to 20 uM incubated for 1 hrs followed by LPS stimulation for 12 hrs and ATP addition for 0.5 hrs by western blot analysis; type: cell-based; conditions: dose 5-20 µM, time 13.5 hrs
# [16] = target: NACHT, LRR and PYD domains-containing protein 3 (Homo sapiens) (UniProt Q96P20); assay: Inhibition of NLRP3 inflammasome activation in PMA-differentiated and LPS/NIG-stimulated human THP-1 cells assessed as decrease in pro-IL-1beta expression at 20 uM incubated for 1 hrs followed by LPS stimulation for 12 hrs and NIG addition for 2 hrs by western blot analysis; type: cell-based; conditions: time 15.0 hrs
# THP-1 [17] = assay: Antiinflammatory activity against PMA-differentiated human THP-1 cells assessed as reduction in IL-1beta level at 20 uM incubated for 1 hrs followed by LPS stimulation for 12 hrs and ATP addition for 0.5 hrs by ELISA; type: functional, cell-based; conditions: time 13.5 hrs
# THP-1 [18] = assay: Antiinflammatory activity against PMA-differentiated and LPS/MSU stimulated human THP-1 cells assessed as increase in cell viability at 5 to 20 uM incubated for 1 hrs followed by LPS stimulation for 12 hrs and MSU addition for 6 hrs by CCK8 assay; type: functional, cell-based; conditions: dose 5-20 µM, time 19.0 hrs
compound,measurement,setting,value
CC1(C)C(=O)C=C[C@]2(C)[C@H]3CC[C@@]4(C)[C@H](c5ccoc5)OC(=O)[C@H]5O[C@]54[C@]3(C)[C@H](O)C[C@@H]12 [DEACETYLGEDUNIN],Activity,THP-1 [1],Active
same,inhibition,[2],Active
same,inhibition,[3],Active
same,Activity,J774.A1 [4],Active
same,Activity,RAW264.7,Non-Toxic
same,inhibition,[5],Active
same,inhibition,[6],Active
same,Activity,J774.A1 [7],Active
same,inhibition,[8],Dde
same,inhibition,[9],Active
same,Activity,THP-1 [10],Active
same,inhibition,[11],Active
same,Activity,THP-1 [12],Active
same,inhibition,[13],Active
same,Activity,J774.1,Non-Toxic
same,inhibition,[14],Active
same,inhibition,[15],Active
same,inhibition,[16],Active
same,Activity,THP-1 [17],Active
same,Activity,THP-1 [18],Active
